IC50 data for 22 compounds are collected here from US10479795B2 (Incyte Corporation, priority 2016, dated 2019).

Test [1] addresses PI3Kγ (p110γ) Recombinant Human Protein (Homo sapiens (Human), UniProt P48736). The experiment in a line: PI3K-γ Scintillation Proximity Assay. The format is biochemical. As to conditions: read-out: PI3Kγ IC50. The method in brief:
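Radiometric SPA readout: […] bound to WGA beads after overnight shaking, IC50 derived from % activity of DMSO control. Reaction used human p110γ, 2 μM ATP, 20 μM PIP2, pH 6.7 MOPS buffer with MgCl2, DTT, CHAPS, 2% DMSO, room temperature.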

Test [2] addresses PI3Kδ (p110δ/p85α) Recombinant Human Protein (Homo sapiens (Human), UniProt O00329). The experiment in a line: PI3Kδ Scintillation Proximity Assay. The format is biochemical. From the text: Example C. PI3Kδ Scintillation Proximity Assay
[γ-^33P]ATP (10 mCi/mL) and Wheat Germ Agglutinin (WGA) YSi SPA Scintillation Beads was purchased from Perkin-Elmer (Waltham, Mass.). Lipid kinase substrate, D-myo-Phosphatidylinositol 4,5-bisphosphate (PtdIns(4,5)P2)D (+)-sn-1,2-di-O-octanoylglyceryl, 3-O-phospho linked (PIP2), CAS 204858-53-7, was purchased from Echelon Biosciences (Salt Lake City, Utah). PI3Kδ (p110δ/p85α) Recombinant Human Protein was purchased from Eurofins (St Charles, Mo.). ATP, MgCl2, DTT, EDTA, MOPS and CHAPS were purchased from Sigma-Aldrich (St. Louis, Mo.).
The kinase reaction was conducted in polystyrene 384-well Greiner Bio-one white plate from Thermo Fisher Scientific in a final volume of 25 μL. Inhibitors were first diluted serially in DMSO and added to the plate wells before the addition of other reaction components. The final concentration of DMSO in the assay was 2%. The PI3Kδ assay was carried out at room temperature in 20 mM MOPS, pH 6.7, 10 mM MgCl2, 5 mM DTT and CHAPS 0.03%. Reactions were initiated by the addition of ATP, the final reaction mixture consisted of 20 μM PIP2, 2 μM ATP, 0.5 μCi [γ-^33P] ATP, 3.4 nM PI3Kδ. Reactions were incubated for 120 min and terminated by the addition of 40 μL SPA beads suspended in quench buffer: 163 mM potassium phosphate pH 7.8, 20% glycerol, 25 mM EDTA. The final concentration of SPA beads is 1.0 mg/mL. After the plate sealing, plates were shaken overnight at room temperature and centrifuged at 1500 rpm for 10 min, the radioactivity of the product was determined by scintillation counting on Topcount (Perkin-Elmer). IC50 determination was performed by fitting the curve of percent of the solvent control activity versus the log of the inhibitor concentration using the GraphPad Prism 6.0 software.

Where a name gives a salt, the structure may show the parent alone.

Chain of PI3Kγ (p110γ) Recombinant Human Protein (P48736 whole entry): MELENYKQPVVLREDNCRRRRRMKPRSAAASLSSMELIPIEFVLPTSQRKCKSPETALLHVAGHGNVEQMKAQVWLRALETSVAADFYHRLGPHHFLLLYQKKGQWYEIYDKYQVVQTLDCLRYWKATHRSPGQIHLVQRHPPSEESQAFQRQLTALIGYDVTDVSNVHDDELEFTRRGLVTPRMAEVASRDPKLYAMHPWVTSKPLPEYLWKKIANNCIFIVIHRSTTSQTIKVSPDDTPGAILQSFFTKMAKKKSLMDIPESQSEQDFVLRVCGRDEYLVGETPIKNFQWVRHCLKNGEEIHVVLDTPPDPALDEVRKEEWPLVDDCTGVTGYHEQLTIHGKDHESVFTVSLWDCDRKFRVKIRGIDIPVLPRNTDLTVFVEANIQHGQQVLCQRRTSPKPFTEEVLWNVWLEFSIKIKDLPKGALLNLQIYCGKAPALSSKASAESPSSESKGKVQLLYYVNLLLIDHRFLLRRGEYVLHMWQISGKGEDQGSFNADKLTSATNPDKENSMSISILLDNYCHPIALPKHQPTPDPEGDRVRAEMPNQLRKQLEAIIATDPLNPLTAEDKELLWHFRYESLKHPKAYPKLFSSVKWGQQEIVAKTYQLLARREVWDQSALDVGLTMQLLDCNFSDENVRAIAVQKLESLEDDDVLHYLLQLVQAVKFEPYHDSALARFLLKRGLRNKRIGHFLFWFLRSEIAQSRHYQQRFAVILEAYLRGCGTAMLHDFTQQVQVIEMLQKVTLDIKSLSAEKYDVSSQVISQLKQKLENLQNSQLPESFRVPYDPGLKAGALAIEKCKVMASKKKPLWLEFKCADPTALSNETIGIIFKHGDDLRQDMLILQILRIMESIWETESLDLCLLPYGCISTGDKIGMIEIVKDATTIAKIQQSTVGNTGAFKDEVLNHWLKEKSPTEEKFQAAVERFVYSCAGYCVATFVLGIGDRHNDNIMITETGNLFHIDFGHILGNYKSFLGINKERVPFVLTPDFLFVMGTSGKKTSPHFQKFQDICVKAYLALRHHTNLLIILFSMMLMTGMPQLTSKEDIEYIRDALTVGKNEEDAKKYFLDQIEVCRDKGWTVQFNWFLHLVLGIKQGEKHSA
Chain of PI3Kδ (p110δ/p85α) Recombinant Human Protein (O00329 whole entry): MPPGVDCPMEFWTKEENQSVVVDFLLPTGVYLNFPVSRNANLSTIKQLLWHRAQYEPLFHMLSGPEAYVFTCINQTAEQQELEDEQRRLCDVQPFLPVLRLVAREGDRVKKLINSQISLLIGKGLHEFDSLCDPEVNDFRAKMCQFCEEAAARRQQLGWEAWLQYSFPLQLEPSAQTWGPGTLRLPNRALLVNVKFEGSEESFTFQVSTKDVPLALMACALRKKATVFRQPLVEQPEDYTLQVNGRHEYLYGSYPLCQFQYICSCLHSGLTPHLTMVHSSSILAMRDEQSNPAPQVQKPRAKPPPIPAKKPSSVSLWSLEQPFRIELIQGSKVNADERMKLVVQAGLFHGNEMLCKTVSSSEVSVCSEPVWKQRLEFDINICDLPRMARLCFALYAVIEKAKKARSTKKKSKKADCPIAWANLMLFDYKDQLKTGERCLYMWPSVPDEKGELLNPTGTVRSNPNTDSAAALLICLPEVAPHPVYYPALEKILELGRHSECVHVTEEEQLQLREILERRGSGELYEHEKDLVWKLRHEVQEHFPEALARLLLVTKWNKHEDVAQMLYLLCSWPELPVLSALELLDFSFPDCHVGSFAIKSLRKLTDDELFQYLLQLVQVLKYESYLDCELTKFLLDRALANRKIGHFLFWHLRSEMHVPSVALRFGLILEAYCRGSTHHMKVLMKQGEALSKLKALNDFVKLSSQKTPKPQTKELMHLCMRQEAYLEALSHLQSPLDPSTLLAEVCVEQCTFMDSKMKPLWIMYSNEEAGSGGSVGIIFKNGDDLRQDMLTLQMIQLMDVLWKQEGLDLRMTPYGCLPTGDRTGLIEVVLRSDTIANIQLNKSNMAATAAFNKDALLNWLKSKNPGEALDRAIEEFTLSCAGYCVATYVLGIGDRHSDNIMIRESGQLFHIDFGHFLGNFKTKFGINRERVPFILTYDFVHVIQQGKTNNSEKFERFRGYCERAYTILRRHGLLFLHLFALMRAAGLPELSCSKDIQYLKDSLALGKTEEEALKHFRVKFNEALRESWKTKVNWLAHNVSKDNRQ
Chain of PI3Kδ (p110δ/p85α) Recombinant Human Protein (P27986 whole entry partner): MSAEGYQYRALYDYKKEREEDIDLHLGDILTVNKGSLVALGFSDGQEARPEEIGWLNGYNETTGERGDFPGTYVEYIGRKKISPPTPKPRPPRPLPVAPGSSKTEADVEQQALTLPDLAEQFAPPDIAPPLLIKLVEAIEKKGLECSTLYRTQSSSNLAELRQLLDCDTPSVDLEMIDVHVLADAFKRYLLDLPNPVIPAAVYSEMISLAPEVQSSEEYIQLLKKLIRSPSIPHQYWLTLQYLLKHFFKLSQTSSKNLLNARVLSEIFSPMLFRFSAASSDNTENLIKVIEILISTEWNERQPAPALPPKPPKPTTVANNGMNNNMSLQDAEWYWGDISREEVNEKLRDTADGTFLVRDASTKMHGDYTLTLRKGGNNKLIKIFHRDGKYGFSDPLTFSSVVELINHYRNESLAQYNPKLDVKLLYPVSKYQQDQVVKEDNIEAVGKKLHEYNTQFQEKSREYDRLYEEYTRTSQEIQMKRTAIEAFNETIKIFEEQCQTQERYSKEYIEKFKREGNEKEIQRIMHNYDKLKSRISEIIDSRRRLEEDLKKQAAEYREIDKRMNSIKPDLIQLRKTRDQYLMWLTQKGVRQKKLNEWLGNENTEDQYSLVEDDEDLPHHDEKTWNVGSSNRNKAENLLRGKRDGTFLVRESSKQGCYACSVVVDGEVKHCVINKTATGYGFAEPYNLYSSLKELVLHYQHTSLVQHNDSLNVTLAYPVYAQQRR

For the compound `Nc1nccn2c(-c3ccc(Cl)c(S(=O)(=O)N[C@H]4CC[C@H](O)CC4)c3)cnc12` [Example 46, 5-(8-Aminoimidazo[1,2-a]pyrazin-3-yl)-2-chloro-N-(trans-4-hydroxycyclohexyl)benzenesulfonamide], the concentration for half-maximal inhibition (IC50) in test [1] is below 100 nM; in test [2] it was 100 to 500 nM.

On to `Cc1ccc(S(=O)(=O)N(C)C2CC2)cc1-c1cnc2c(N)ncnn12` [Example 148, 3-(4-aminoimidazo[2,1-f][1,2,4]triazin-7-yl)-N-cyclopropyl-N,4-dimethylbenzenesulfonamide], for which the IC50 in test [1] lay in the range of 100 to 500 nM; in test [2], 500 to 2000 nM.

As for `Cc1ccc(S(=O)(=O)N(C)CC2(CO)CC2)cc1-c1cnc2c(N)ncnn12` [Example 160, 3-(4-aminoimidazo[2,1-f][1,2,4]triazin-7-yl)-N-((1-(hydroxymethyl)cyclopropyl)methyl)-N,4-dimethylbenzenesulfonamide], the IC50 in test [1] was in the range of 100 to 500 nM; in test [2] it was 500 to 2000 nM.

For the compound `COc1cccc(F)c1-c1cn2c(-c3cc(S(C)(=O)=O)ccc3C)cnc2c(N)n1` [Example 478, 6-(2-Fluoro-6-methoxyphenyl)-3-(2-methyl-5-(methylsulfonyl)phenyl)imidazo[1,2-a]pyrazin-8-amine trifluoroacetate], the results for the IC50 in test [1] and in test [2] were 100 to 500 nM and 500 to 2000 nM, respectively.

In the case of `Cc1ccc(S(=O)(=O)N2CCS(=O)(=O)CC2C)cc1-c1cnc2c(N)ncnn12` (centres unmarked) [Example 162, 4-((3-(4-aminoimidazo[2,1-f][1,2,4]triazin-7-yl)-4-methylphenyl)sulfonyl)-3-methylthiomorpholine 1,1-dioxide], the IC50 in test [1] is below 100 nM; in test [2], 500 to 2000 nM.

With `CCCN(CC1CC1)S(=O)(=O)c1ccc(C)c(-c2cnc3c(N)ncnn23)c1` [Example 164, 3-(4-aminoimidazo[2,1-f][1,2,4]triazin-7-yl)-N-(cyclopropylmethyl)-4-methyl-N-propylbenzenesulfonamide], the IC50 in test [1] is below 100 nM; in test [2], 500 to 2000 nM.

Turning to `N#Cc1ccc(S(=O)(=O)NC23CCC(CO)(C2)C3)cc1-c1cnc2c(N)nc(C(F)(F)F)cn12` [Example 401, 3-(8-Amino-6-(trifluoromethyl)imidazo[1,2-a]pyrazin-3-yl)-4-cyano-N-(4-(hydroxymethyl)bicyclo[2.1.1]hexan-1-yl)benzenesulfonamide trifluoroacetate salt], the values for the half-maximal inhibitory concentration (IC50) in test [1] and in test [2] were below 100 nM and above 2000 nM, respectively.

For `Cc1ccc(S(=O)(=O)N2CCC3(CCC(F)(F)CC3)C2)cc1-c1cnc2c(N)ncnn12` [Example 207, 7-(5-((8,8-Difluoro-2-azaspiro[4.5]decan-2-yl)sulfonyl)-2-methylphenyl)imidazo[2,1-f][1,2,4]triazin-4-amine], the figures for the IC50 in test [1] and in test [2] were below 100 nM and 100 to 500 nM, respectively.

For the compound `N#CC12CCC(NS(=O)(=O)c3ccc(OC(F)(F)F)c(-c4cnc5c(N)ncnn45)c3)(C1)C2` [Example 373, 3-(4-Aminoimidazo[1,2-f][1,2,4]triazin-7-yl)-N-(4-cyanobicyclo[2.1.1]hexan-1-yl)-4-(trifluoromethoxy)benzenesulfonamide trifluoroacetate salt], the IC50 in test [1] and in test [2] was 500 to 2000 nM in each case.

In the case of `Cc1ccc(S(C)(=O)=O)cc1-c1cnc2c(N)nc(C(=O)NCC3CCC(C(F)(F)F)CC3)cn12` (mixture of isomers) [Example 456, 8-amino-3-(2-methyl-5-(methylsulfonyl)phenyl)-N-((4-(trifluoromethyl)cyclohexyl)methyl)imidazo[1,2-a]pyrazine-6-carboxamide trifluoroacetate salt (1:1 cis/trans isomers)], the IC50 in test [1] and in test [2] was 100 to 500 nM throughout.

Take `Cc1ccc(S(C)(=O)=O)cc1-c1cnc2c(N)nc(C(=O)NC3CCCN(CCO)C3)cn12` (racemic) [Example 460, 8-Amino-N-(1-(2-hydroxyethyl)piperidin-3-yl)-3-(2-methyl-5-(methylsulfonyl)phenyl)imidazo[1,2-a]pyrazine-6-carboxamide trifluoroacetate salt (racemic)]: the figures for the half-inhibitory concentration (IC50) in test [1] and in test [2] were 500 to 2000 nM and above 2000 nM, respectively.

Take `Cc1ccc(S(=O)(=O)N2CCC3(CC2)COC(=O)N3)cc1-c1cnc2c(N)ncnn12` [Example 193, 8-((3-(4-Aminoimidazo[2,1-f][1,2,4]triazin-7-yl)-4-methylphenyl)sulfonyl)-3-oxa-1,8-diazaspiro[4.5]decan-2-one]: the figures for the half-maximal inhibitory concentration (IC50) in test [1] and in test [2] were below 100 nM and 500 to 2000 nM, respectively.

In the case of `COC[C@H]1CCCN1C(=O)C1CCCN(S(=O)(=O)c2ccc(C)c(-c3cnc4c(N)nc(C(F)(F)F)cn34)c2)C1` (stereo partly drawn) [Example 511, (1-((3-(8-Amino-6-(trifluoromethyl)imidazo[1,2-a]pyrazin-3-yl)-4-methylphenyl)sulfonyl)piperidin-3-yl)((R)-2-(methoxymethyl)pyrrolidin-1-yl)methanone], the results for the IC50 in test [1] and in test [2] were 500 to 2000 nM and above 2000 nM, respectively.

For the compound `Cc1ccc(S(=O)(=O)N(CCC#N)C2CCCCC2)cc1-c1cnc2c(N)ncnn12` [Example 173, 3-(4-aminoimidazo[2,1-f][1,2,4]triazin-7-yl)-N-(2-cyanoethyl)-N-cyclohexyl-4-methylbenzenesulfonamide], the results for the concentration for half-maximal inhibition (IC50) in test [1] and in test [2] were 100 to 500 nM and above 2000 nM, respectively.

Consider `Cc1ccc(S(=O)(=O)N2CCCC(NC(=O)OC(C)(C)C)C2)cc1-c1cnc2c(N)nc(C(F)(F)F)cn12` (centres unmarked) [Example 515, tert-Butyl (1-((3-(8-amino-6-(trifluoromethyl)imidazo[1,2-a]pyrazin-3-yl)-4-methylphenyl)sulfonyl)piperidin-3-yl)carbamate], for which the figures for the IC50 in test [1] and in test [2] were 100 to 500 nM and above 2000 nM, respectively.

Take `Cc1c(F)cc(S(=O)(=O)NCC(C)(C)O)cc1-c1cnc2c(N)nc(CO)nn12` [Example 470, 3-(4-Amino-2-(hydroxymethyl)imidazo[2,1-f][1,2,4]triazin-7-yl)-5-fluoro-N-(2-hydroxy-2-methylpropyl)-4-methylbenzenesulfonamide]: the concentration for half-maximal inhibition (IC50) in test [1] was below 100 nM; in test [2], 500 to 2000 nM.

For the compound `COCCN1CCCC(NC(=O)c2cn3c(-c4cc(S(C)(=O)=O)ccc4C)cnc3c(N)n2)C1` (centres unmarked) [Example 458, 8-Amino-N-(1-(2-methoxyethyl)piperidin-3-yl)-3-(2-methyl-5-(methylsulfonyl)phenyl)imidazo[1,2-a]pyrazine-6-carboxamide trifluoroacetate salt], the results for the IC50 in test [1] and in test [2] were 500 to 2000 nM and above 2000 nM, respectively.

In the case of `Cc1ccc(S(=O)(=O)N2CC3(CC(O)C3)C2)cc1-c1cnc2c(N)nc(C(F)(F)F)cn12` [Example 297, 2-((3-(8-amino-6-(trifluoromethyl)imidazo[1,2-a]pyrazin-3-yl)-4-methylphenyl)sulfonyl)-2-azaspiro[3.3]heptan-6-ol], the IC50 in test [1] was below 100 nM; in test [2] it was 500 to 2000 nM.

On to `Cc1ccc(S(C)(=O)=O)cc1-c1cnc2c(N)nc(C(=O)NC3CCCN(S(C)(=O)=O)C3)cn12` (centres unmarked) [Example 462, 8-Amino-3-(2-methyl-5-(methylsulfonyl)phenyl)-N-(1-(methylsulfonyl)piperidin-3-yl)imidazo[1,2-a]pyrazine-6-carboxamide trifluoroacetate salt], for which the values for the IC50 in test [1] and in test [2] were below 100 nM and 500 to 2000 nM, respectively.

With `Cc1ccc(-c2cnc3c(N)ncnn23)cc1S(=O)(=O)NC12CCC(C#N)(C1)C2` [Example 369, 5-(4-Aminoimidazo[1,2-f][1,2,4]triazin-7-yl)-N-(4-cyanobicyclo[2.1.1]hexan-1-yl)-2-methylbenzenesulfonamide trifluoroacetate salt], the IC50 was below 100 nM in test [1] and 100 to 500 nM in test [2].

For `Cc1ccc(S(=O)(=O)N2CC(N3CCOCC3)C2)cc1-c1cnc2c(N)ncnn12` [Example 146, 7-(2-methyl-5-((3-morpholinoazetidin-1-yl)sulfonyl)phenyl)imidazo[2,1-f][1,2,4]triazin-4-amine, 2TFA], the figures for the 50% inhibitory concentration (IC50) in test [1] and in test [2] were below 100 nM and 100 to 500 nM, respectively.

In the case of `Cc1ccc(S(=O)(=O)N2CC3NCC2C3O)cc1-c1cnc2c(N)nc(C(F)(F)F)cn12` (centres unmarked) [Example 303, 2-((3-(8-amino-6-(trifluoromethyl)imidazo[1,2-a]pyrazin-3-yl)-4-methylphenyl)sulfonyl)-2,5-diazabicyclo[2.2.1]heptan-7-ol 2HCl], the IC50 in test [1] was below 100 nM; in test [2], 500 to 2000 nM.
